According to US5760050A, “Antipsychotic method utilizing certain tetrahydrochromeno[3,4-c]pyridin-5-ones” (Warner-Lambert Company, priority 1997, dated 1998):
Structures can show the parent of a compound that is named as a salt.

Tests used:
[1] = molecular target: T1, human D4 dopamine receptor (Homo sapiens, UniProt P21917); assay: inhibition of [^3 H]spiperone binding to the human D4 dopamine receptor
T1 construct: expressed in transfected cells
T1 sequence (P21917 1-419): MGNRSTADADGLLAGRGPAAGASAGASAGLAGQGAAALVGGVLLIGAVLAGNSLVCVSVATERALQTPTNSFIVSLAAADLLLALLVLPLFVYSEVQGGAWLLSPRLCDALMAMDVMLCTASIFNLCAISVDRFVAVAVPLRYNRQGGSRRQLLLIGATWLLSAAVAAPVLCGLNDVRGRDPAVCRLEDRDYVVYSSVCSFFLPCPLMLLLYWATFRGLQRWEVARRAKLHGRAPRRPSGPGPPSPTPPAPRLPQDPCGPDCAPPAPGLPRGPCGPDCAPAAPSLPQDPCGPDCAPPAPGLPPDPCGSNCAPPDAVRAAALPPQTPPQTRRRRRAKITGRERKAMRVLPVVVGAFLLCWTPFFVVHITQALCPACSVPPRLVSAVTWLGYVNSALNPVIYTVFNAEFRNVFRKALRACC
Experimental: (§1) Compounds of Formula I were tested for their ability to bind to dopamine receptors as measured by their inhibition of [^3 H]spiperone binding to the human D2 and D3 receptors in an assay described by MacKenzie R. G., VanLeeuwen D., Pugsley T. A., et al., "Characterization of the human dopamine D3 receptor expressed in transfected cell lines." Eur. J. Pharmacol.-Mol. Pharmacol., 1994;266:79-85; for the human D4 dopamine receptor in an assay described by Pugsley T. A., David M. D., Akunne H. C., et al., "CI-1007, a dopamine partial agonist and potential antipsychotic agent. I. Neurochemical Effects." J. Pharmacol. Exp. Ther., 1995;274:898-911; and for ability to block the action of an agonist in a [^3 H]thymidine incorporation assay described by Lajiness N. E., Chio C. L., Huff R. M., "D2 dopamine receptor stimulation of mitogenesis in transfected Chinese hamster ovary cells: relationship to dopamine stimulation of tyrosine phosphorylations." J. Pharmacol. Exp. Ther., 1993;267:1573-81. This test determines the agonist/antagonist character of a compound by measuring [^3 H]thymidine uptake in Chinese hamster ovary (CHO) pro-5 cells expressing the dopamine D4 receptor. Agonists, such as quinpirole, promote cell growth and subsequent [^3 H]thymidine incorporation, while antagonists block the action of agonists. […] The above articles are incorporated herein by reference for their assay methodology.

human D3 receptor = molecular target: T2, human D3 receptor (Homo sapiens, UniProt P35462); assay: inhibition of [^3 H]spiperone binding to the human D3 receptor; conditions: read-out: Dopamine Receptor Binding (Ki, nM) D3
T2 construct: expressed in transfected cells
T2 sequence (P35462 whole entry): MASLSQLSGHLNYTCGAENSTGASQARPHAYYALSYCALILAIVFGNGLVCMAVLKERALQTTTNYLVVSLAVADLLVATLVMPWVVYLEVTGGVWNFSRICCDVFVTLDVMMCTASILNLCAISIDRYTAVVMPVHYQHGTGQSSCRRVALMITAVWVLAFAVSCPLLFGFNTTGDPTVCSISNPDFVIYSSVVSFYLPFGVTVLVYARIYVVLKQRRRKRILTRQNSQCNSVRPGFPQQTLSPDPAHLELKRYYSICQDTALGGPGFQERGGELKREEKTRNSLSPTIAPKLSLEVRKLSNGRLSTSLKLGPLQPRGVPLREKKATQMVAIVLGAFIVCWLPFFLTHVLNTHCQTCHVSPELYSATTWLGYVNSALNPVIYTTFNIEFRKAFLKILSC
Experimental: as §1

human D2 receptor = molecular target: T3, human D2 receptor (Homo sapiens, UniProt P14416); assay: inhibition of [^3 H]spiperone binding to the human D2 receptor; conditions: read-out: Dopamine Receptor Binding (Ki, nM) D2
T3 construct: expressed in transfected cells
T3 sequence (P14416 whole entry): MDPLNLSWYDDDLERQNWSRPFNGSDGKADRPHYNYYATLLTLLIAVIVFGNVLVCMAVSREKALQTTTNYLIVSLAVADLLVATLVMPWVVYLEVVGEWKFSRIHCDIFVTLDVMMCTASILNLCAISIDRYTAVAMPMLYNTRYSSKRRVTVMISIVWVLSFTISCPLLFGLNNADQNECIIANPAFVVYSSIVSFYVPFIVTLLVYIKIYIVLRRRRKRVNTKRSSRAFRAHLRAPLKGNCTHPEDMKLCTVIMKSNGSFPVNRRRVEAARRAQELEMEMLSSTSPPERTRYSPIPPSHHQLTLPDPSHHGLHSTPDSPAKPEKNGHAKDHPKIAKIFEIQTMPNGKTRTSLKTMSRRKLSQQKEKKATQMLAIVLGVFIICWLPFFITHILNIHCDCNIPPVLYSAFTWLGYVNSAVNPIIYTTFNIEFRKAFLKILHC
Experimental: as §1

dopamine D4 receptor = conditions: D4 vs D2; cited from earlier work
schizophrenia = conditions: in vivo; cited from earlier work

Row | Compound | Ki [1] [nM] | Ki (human D3 receptor) [nM] | Ki (human D2 receptor) [nM] | other results
1 | COc1ccc2c3c(c(=O)oc2c1)CN(Cc1ccc(Cl)c(Cl)c1)CC3 [Example 4, 3-(3,4-Dichloro-benzyl)-8-methoxy-1,2,3,4-tetrahydro-chromeno[3,4-c]pyridin-5-one] | 60.9 | – | – | –
2 | COc1ccc2c3c(c(=O)oc2c1)CN(Cc1ccc([N+](=O)[O-])cc1)CC3 [Example 5, 8-Methoxy-3-(4-nitro-benzyl)-1,2,3,4-tetrahydro-chromeno[3,4-c]pyridin-5-one] | 7.53 | – | > 5880 | –
3 | Cc1cc2oc(=O)c3c(c2cc1O)CCN(Cc1ccccc1)C3 [Example 7, 3-Benzyl-9-hydroxy-8-methyl-1,2,3,4-tetrahydro-chromeno[3,4-c]pyridin-5-onehydrochloride] | 8.01 | 295 | 1900 | –
4 | COc1ccc2c3c(c(=O)oc2c1)CN(Cc1ccc(Cl)cc1)CC3 [Example 9, 3-(4-Chloro-benzyl)-8-methoxy-1,2,3,4-tetrahydro-chromeno[3,4-c]pyridin-5-one] | 7.3 | 11700 | > 5880 | –
5 | COc1ccc2c3c(c(=O)oc2c1)CN(Cc1ccncc1)CC3 [Example 10, 8-Methoxy-3-pyridin-4-ylmethyl-1,2,3,4-tetrahydro-chromeno[3,4-c]pyridin-5-one] | 73.5 | – | – | –
6 | COc1ccc2c3c(c(=O)oc2c1)CN(Cc1ccc(C(F)(F)F)cc1)CC3 [Example 13, 8-Methoxy-3-(4-trifluoromethyl-benzyl)-1,2,3,4-tetrahydro-chromeno[3,4-c]pyridin-5-one] | 8.18 | 966 | – | –
7 | COc1ccc2c3c(c(=O)oc2c1)CN(Cc1ccccn1)CC3 [Example 19, 8-Methoxy-3-pyridin-2-ylmethyl-1,2,3,4-tetrahydro-chromeno[3,4-c]pyridin-5-one] | 48 | – | – | –
8 | COc1cc2oc(=O)c3c(c2cc1OC)CCN(Cc1ccc(Cl)cc1)C3 [Example 21, 3-(4-Chloro-benzyl)-8,9-dimethoxy-1,2,3,4-tetrahydro-chromeno[3,4-c]pyridin-5-one] | 8.46 | – | > 5880 | –
9 | COc1ccc2c3c(c(=O)oc2c1)CN(CCc1ccccc1)CC3 [Example 22, 8-Methoxy-3-phenethyl-1,2,3,4-tetrahydro-chromeno[3,4-c]pyridin-5-one] | 6.87 | 591 | > 5880 | –
10 | COc1cc2oc(=O)c3c(c2cc1OC)CCN(CCc1ccccc1)C3 [Example 23, 8,9-Dimethoxy-3-phenethyl-1,2,3,4-tetrahydro-chromeno[3,4-c]pyridin-5-one hydrochloride] | 32.6 | – | – | –
11 | COc1ccc2c3c(c(=O)oc2c1OC)CN(Cc1ccccc1)CC3 [Example 24, 3-Benzyl-7,8-dimethoxy-1,2,3,4-tetrahydro-chromeno[3,4-c]pyridin-5-one] | 16.2 | – | – | –
12 | CN1CCN(C2=Nc3cc(Cl)ccc3Nc3ccccc32)CC1 [clozapine] | – | – | – | higher affinity for the dopamine D4 receptor than for the D2 receptor (dopamine D4 receptor): 10 fold; improvement of positive and negative symptoms of schizophrenia (schizophrenia): improves both the positive and negative symptoms of schizophrenia; incidence of extrapyramidal side effects (schizophrenia): low incidence of extrapyramidal side effects

Second part, led by results:

Row | Ki [1] [nM] | Ki (human D3 receptor) [nM] | Ki (human D2 receptor) [nM] | Compound | other results
13 | 1.5 | 60 | – | COc1ccc2c3c(c(=O)oc2c1)CN(Cc1ccccc1)CC3 [Example 1, 3-Benzyl-8-methoxy-1,2,3,4-tetrahydro-chromeno[3,4-c]-pyridin-5-one] | –
14 | 2.6 | 491 | – | COc1ccc2c3c(c(=O)oc2c1)CN(Cc1ccc(C)cc1)CC3 [Example 3, 8-Methoxy-3-(4-methyl-benzyl)-1,2,3,4-tetrahydro-chromeno[3,4-c]pyridin-5-one] | –
15 | 59 | – | – | COc1cc2oc(=O)c3c(c2cc1OC)CCN(Cc1ccccc1)C3 [Example 6, 3-Benzyl-8,9-dimethoxy-1,2,3,4-tetrahydro-chromeno[3,4-c]pyridin-5-one] | –
16 | 44.3 | – | – | Cc1c(O)cc2oc(=O)c3c(c2c1O)CCN(Cc1ccccc1)C3 [Example 8, 3-Benzyl-8,10-dihydroxy-9-methyl-1,2,3,4-tetrahydro-chromeno[3,4-c]pyridin-5-one hydrochloride] | –
17 | 34.3 | – | – | COc1ccc2c3c(c(=O)oc2c1)CN(Cc1ccnc2ccccc12)CC3 [Example 11, 8-Methoxy-3-quinolin-4-ylmethyl-1,2,3,4-tetrahydro-chromeno[3,4-c]pyridin-5-one] | –
18 | 21.3 | 3670 | 2670 | COc1ccc2c3c(c(=O)oc2c1)CN(Cc1cc(OC)c(OC)c(OC)c1)CC3 [Example 12, 8-Methoxy-3-(3,4,5-trimethoxy-benzyl)-1,2,3,4-tetrahydro-chromeno[3,4-c]pyridin-5-one] | –
19 | 84.3 | – | – | COc1ccc(CN2CCc3c(c(=O)oc4cc(OC)ccc34)C2)cc1 [Example 14, 8-Methoxy-3-(4-methoxy-benzyl)-1,2,3,4-tetrahydro-chromeno[3,4-c]pyridin-5-one] | –
20 | 17.2 | 2630 | – | COc1ccc2c3c(c(=O)oc2c1)CN(Cc1cccc(Cl)c1)CC3 [Example 15, 3-(3-Chloro-benzyl)-8-methoxy-1,2,3,4-tetrahydro-chromeno[3,4-c]pyridin-5-one] | –
21 | 33.9 | 2610 | > 5880 | COc1ccc2c3c(c(=O)oc2c1)CN(Cc1ccccc1Cl)CC3 [Example 16, 3-(2-Chloro-benzyl)-8-methoxy-1,2,3,4-tetrahydro-chromeno[3,4-c]pyridin-5-one] | –
22 | 3.59 | 338 | – | Cc1ccc2c3c(c(=O)oc2c1)CN(Cc1ccccc1)CC3 [Example 17, 3-Benzyl-8-methyl-1,2,3,4-tetrahydro-chromeno[3,4-c]pyridin-5-one] | –
23 | 21.3 | – | 3980 | COc1ccc2c3c(c(=O)oc2c1)CN(Cc1cccnc1)CC3 [Example 18, 8-Methoxy-3-pyridin-3-ylmethyl-1,2,3,4-tetrahydro-chromeno[3,4-c]pyridin-5-one] | –
24 | 10.6 | – | – | Cc1ccc2c3c(c(=O)oc2c1)CN(Cc1ccc(Cl)cc1)CC3 [Example 20, 3-(4-Chloro-benzyl)-8-methyl-1,2,3,4-tetrahydro-chromeno[3,4-c]pyridin-5-one] | –
